Results: patent publication US7022693B2, “Treatment of lipodystrophy” (Ark Therapeutics Ltd., priority 2001, dated 2006)

Tested on: ACE activity in T-cells
Assay: ACE activity in T-cells after administration of a protease inhibitor
Assay type: cell-based

CC(C)C[C@H](NC(=O)[C@@H](O)[C@H](N)Cc1ccccc1)C(=O)O [bestatin]
ACE activity in T-cells: increased ACE activity
